Test results as given in the NIST ThermoML archive (doi:10.1016/j.tca.2005.04.002).
Numbers after ± are expanded uncertainties.

Assay: mn = molality of the nth substance listed, in mol/kg
Conditions: 298.15 K; 101.33 kPa; Liquid; Calvet calorimetry; m1 = 0.1

Row | molar enthalpy of solution [kcal/mol] | SMILES
1 | 2.69 ± 0.0454 | N[C@@H](CO)C(=O)O [L-serine] + O
2 | 1.86 ± 0.0359 | C[C@H](N)C(=O)O [(S)-2-aminopropanoic acid] + O
3 | 3.38 ± 0.0526 | NCC(=O)O [2-aminoacetic acid] + O
